Measured values published in EPA's ToxValDB 9.5 (doi:10.2903/j.efsa.2015.4001).

Experiments:
Mus musculus = details: organ weight
Colinus virginianus = details: acute; oral
Anas platyrhynchos = details: reproductive
Apis mellifera = details: acute, duration: 48 hours, mortality
Oryctolagus sp. = details: developmental; development

CCOC(=O)COc1cc(-c2nn(C)c(OC(F)F)c2Cl)c(F)cc1Cl [Pyraflufen-ethyl]
NOAEL (Mus musculus; chronic, duration: 18 months): 20 mg/kg-day
NOAEL (Mus musculus; subchronic, duration: 90 days, oral): 20 mg/kg-day
LC50 (Tagia sp.; acute, duration: 14 days, mortality): > 500 mg/kg
NOEC (Tagia sp.; chronic/long-term): ≥ 250 mg/kg
LD50 (Colinus virginianus): > 2000 mg/kg-day
NOAEL (Anas platyrhynchos): 50 mg/kg-day
LD50 (Apis mellifera; dermal): > 100 µg/piece
LD50 (Apis mellifera; oral, unspecified): > 112 µg/piece
LD50 (Rattus norvegicus; acute, oral, mortality): > 5000 mg/kg-day
NOAEL (Rattus norvegicus; chronic, duration: 2 years, organ weight): 20 mg/kg-day
NOAEL (Rattus norvegicus; reproduction developmental): 20 mg/kg-day
NOAEL (Oryctolagus sp.): 20 mg/kg-day
